In assay [1] the test system is differentiated L6-myotubes. In words: Glucose uptake screen (Biological example 1 of WO 2019/053427). The following applies: compound at 10 μM, activity relative to isoproterenol at 10 μM; for Emax at 10 µM: read-out: Biological example 1 of WO 2019/053427 (GU). Format: cell-based. The gist of the method:
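Uptake was read out as ^3H-2-deoxyglucose (50 nM, 10 min) radioactivity in NaOH lysates. Beforehand, overnight-starved, differentiated L6 myotubes received compound at 1×10^−5 M with ICI-118551 present for 1 h 40 min, followed by fresh agonist for a further 20 min in glucose-free medium.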

Assay [2] has as its system differentiated L6-myotubes. In words: cAMP production relative to isoprenaline (Biological example 2 of WO 2019/053427). In kind it is cell-based. Particulars: 0.25 h, compound at 10 μM, activity relative to isoproterenol at 10 μM. The essentials:
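Values are cAMP levels relative to isoprenaline at equal concentration (final 1×10^−5 M for both). Stimulation lasted 15 min in differentiated L6 myotubes, using HBSS buffer (pH 7.4) containing 1 mM IBMX, 5 mM HEPES and 1% BSA.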
On the technique in general: Cyclic AMP is a second messenger, typically raised through Gs and lowered through Gi signalling.

As for `CC(C)(C[C@H]1CC[C@@H](NC(=O)C2CCC2)CC1)NC[C@H](O)c1cccc(F)c1` [Compound 448, N-[(1S,4s)-4-{2-[(R)-2-(m-fluorophenyl)-2-hydroxyethylamino]-2-methylpropyl}cyclohexyl]cyclobutanecarboxamide], the results for the Emax at 10 µM in assay [1] and in assay [2] were 50 to 75% and less than 25%, respectively.
In the case of `CC1(C)CC[C@H]([C@@H](O)c2ccccc2Cl)N1` [Compound 151, (S)-[(R)-5,5-dimethyl-2-pyrrolidinyl](o-chlorophenyl)methanol], in assay [1], the “Biological example 1 of WO 2019/053427 (GU)” value is on record as “− (less than 25%)”. Further, the Emax at 10 µM in assay [2] is less than 25%.
As for `CCC[C@@H]1CC[C@H]([C@H](O)c2ccccc2Cl)N1` [Compound 148, (R)-[(2R,5R)-5-propyl-2-pyrrolidinyl](o-chlorophenyl)methanol], the Emax at 10 µM in assay [1] was greater than 75%; in assay [2], less than 25%.
With `CC1(C)CC[C@H]([C@@H](O)c2ccccc2F)N1` [Compound 174, (S)-[(R)-5,5-dimethyl-2-pyrrolidinyl](o-fluorophenyl)methanol], the Emax at 10 µM in assay [1] and in assay [2] was less than 25% in each case.
Regarding `CC12CCC([C@@H](O)c3ccncc3F)(CC1)N2` [Compound 253, (S)-(3-fluoro-4-pyridyl)(4-methyl-7-azabicyclo[2.2.1]hept-1-yl)methanol], the Emax at 10 µM in assay [1] and in assay [2] was less than 25% throughout.
For the molecule `CC(C)(NC[C@H](O)c1cccc(F)c1)[C@H]1CC[C@@H](O)CC1` [Compound 284, (R)-1-(m-fluorophenyl)-2-{1-methyl-1-[(1s,4S)-4-hydroxycyclohexyl]ethyl-amino}-1-ethanol], the Emax at 10 µM in assay [1] is 50 to 75%; in assay [2], less than 25%.
Take `CCCCCCCCNCC(O)c1ccc(O)cc1` (centres unmarked) [Compound 18, 1-(p-hydroxyphenyl)-2-(octylamino)-1-ethanol]: the Emax at 10 µM in assay [1] was 25 to 50%; in assay [2] it was less than 25%.
The matching figures for `CCC[C@@H]1CCC[C@H]([C@H](O)c2cccc(O)c2)N1` [Compound 45, (R)-[(2R,6R)-6-propyl-2-piperidyl](m-hydroxyphenyl)methanol]: greater than 75% and less than 25%.
In the case of `CC12CC(C1)[C@@H]([C@@H](O)c1cccc(F)c1)N2` [Compound 189, (S)-{(S)-1-methyl-2-azabicyclo[2.1.1]hex-3-yl}(m-fluorophenyl)methanol], the Emax at 10 µM was 50 to 75% in assay [1] and less than 25% in assay [2].
With `CC12CC(C1)[C@H]([C@H](O)c1cccc(N)c1F)N2` [Compound 241, (R)-{(R)-1-methyl-2-azabicyclo[2.1.1]hex-3-yl}(3-amino-2-fluorophenyl)methanol], the values for the Emax at 10 µM in assay [1] and in assay [2] were greater than 75% and less than 25%, respectively.
The matching figures for `CC1(C)C[C@H]([C@@H](O)c2ccccc2F)N1` [Compound 203, (S)-[(R)-4,4-dimethyl-2-azetidinyl](o-fluorophenyl)methanol]: 25 to 50% and less than 25%.
Turning to `COC(=O)[C@H]1CC[C@@H](CC(C)(C)NC[C@H](O)c2cncc(F)c2)CC1` [Compound 322, methyl (1S,4s)-4-{2-[(R)-2-(5-fluoro-3-pyridyl)-2-hydroxyethylamino]-2-methylpropyl}cyclohexanecarboxylate], the Emax at 10 µM in assay [1] was greater than 75%; in assay [2] it was less than 25%.
Taken in the same sequence, the figures for `CCC[C@@H]1CC[C@H]([C@@H](O)c2cccc(F)c2)N1` [Compound 126, (S)-[(2R,5R)-5-propyl-2-pyrrolidinyl](m-fluorophenyl)methanol] were 25 to 50% and less than 25%.
`CCC[C@H]1CC[C@@H]([C@@H](O)c2cccc(F)c2)N1` [Compound 131, (S)-[(2S,5S)-5-propyl-2-pyrrolidinyl](m-fluorophenyl)methanol]: the Emax at 10 µM in assay [1] was 50 to 75%; in assay [2], less than 25%.
With `COC(=O)[C@H]1CC[C@H](C(C)(C)NC[C@H](O)c2cncc(F)c2)CC1` [Compound 370, (1R,4r)-8-[(R)-2-(5-fluoro-3-pyridyl)-2-hydroxyethylamino]-7-methoxy-p-menthan-7-one], the Emax at 10 µM in assay [1] is greater than 75%; in assay [2], less than 25%.
Taken in the same sequence, the figures for `CCC[C@H]1CCC[C@H]([C@H](O)c2cccc(Cl)c2)N1` [Compound 128, (R)-[(2R,6S)-6-propyl-2-piperidyl](m-chlorophenyl)methanol] were 25 to 50% and less than 25%.
With `CC(=O)N[C@H]1CC[C@@H](CC(C)(C)NC[C@H](O)c2cccnc2C)CC1` [Compound 436, N-[(1S,4s)-4-{2-[(R)-2-hydroxy-2-(2-methyl-3-pyridyl)ethylamino]-2-methylpropyl}cyclohexyl]acetamide], the Emax at 10 µM is 50 to 75% in assay [1] and less than 25% in assay [2].
For the molecule `CCOC(=O)CO[C@H]1CC[C@H](C(C)(C)NC[C@H](O)c2cncc(F)c2)CC1` [Compound 409, ethyl [(1R,4r)-4-{1-[(R)-2-(5-fluoro-3-pyridyl)-2-hydroxyethylamino]-1-methylethyl}cyclohexyloxy]acetate], the Emax at 10 µM in assay [1] is greater than 75%; in assay [2], less than 25%.
`COc1ccc(C[C@H]2CC[C@H]([C@@H](O)c3cccc(F)c3)N2)cc1` [Compound 375, (S)-{(2R,5R)-5-[(p-methoxyphenyl)methyl]-2-pyrrolidinyl}(m-fluorophenyl)methanol]: the Emax at 10 µM is greater than 75% in assay [1] and less than 25% in assay [2].
Consider `O[C@@H](CNCC[C@H]1CC[C@@H](OCc2ccccc2)CC1)c1cncc(F)c1` [Compound 291, (R)-1-(5-fluoro-3-pyridyl)-2-{2-[(1s,4S)-4-(benzyloxy)cyclohexyl]ethylamino}-1-ethanol], for which the Emax at 10 µM in assay [1] is 50 to 75%; in assay [2], less than 25%.
The matching figures for `CC1(C)CC[C@@H]([C@H](O)c2cccc(O)c2)N1` [Compound 142, m-{(R)-[(S)-5,5-dimethyl-2-pyrrolidinyl]hydroxymeth-yl}phenol]: 25 to 50% and less than 25%.
For the molecule `CC(=O)N[C@H]1CC[C@@H](CC(C)(C)NC[C@H](O)c2cccc(C#N)n2)CC1` [Compound 421, N-[(1R,4s)-4-{2-[(S)-2-(6-cyano-2-pyridyl)-2-hydroxyethylamino]-2-methylpropyl}cyclohexyl]acetamide], the values for the Emax at 10 µM in assay [1] and in assay [2] were greater than 75% and less than 25%, respectively.
With `C[C@H]1CC[C@@H]([C@@H](O)c2cccc(O)c2)N1` (racemic) [Compound 41, Racemic mixture of m-{(R)-[(2R,5R)-5-methyl-2-pyrrolidinyl]hydroxymeth-yl}phenol and m-{(S)-[(2S,5S)-5-methyl-2-pyrrolidinyl]hydroxymeth-yl}phenol], the Emax at 10 µM is greater than 75% in assay [1] and less than 25% in assay [2].
Taken in the same sequence, the figures for `O[C@@H](c1cncc(F)c1)[C@H]1CC[C@H](Cc2ccc(Cl)cc2)N1` [Compound 405, (S)-{(2R,5R)-5-[(p-chlorophenyl)methyl]-2-pyrrolidinyl}(5-fluoro-3-pyridyl)methanol] were greater than 75% and less than 25%.
Taken in the same sequence, the figures for `COc1ccc(CCC23CCC([C@H](O)c4cccc(F)c4)(CC2)N3)cc1` [Compound 540, (R)-(m-fluorophenyl){4-[2-(p-methoxyphenyl)ethyl]-7-azabicyclo[2.2.1]hept-1-yl}methanol] were 50 to 75% and 25 to 50%.
Taken in the same sequence, the figures for `CC(C)(C[C@H]1CC[C@H](NC(=O)C2CC2)CC1)NC[C@H](O)c1cccc(F)c1` [Compound 432, N-[(1R,4r)-4-{2-[(R)-2-(m-fluorophenyl)-2-hydroxyethylamino]-2-methylpropyl}cyclohexyl]cyclopropanecarboxmaide] were greater than 75% and greater than 75%.
For the molecule `CC(C)(C[C@H]1CC[C@@H](C(=O)O)CC1)NC[C@H](O)c1cccc(F)c1` [Compound 331, (1S,4s)-4-{2-[(R)-2-(m-fluorophenyl)-2-hydroxyethylamino]-2-methylpropyl}cyclohexanecarboxylic acid], the Emax at 10 µM in assay [1] is 25 to 50%; in assay [2], less than 25%.
Regarding `CCCCNCC(O)c1cc(Cl)c(O)c(Cl)c1` (centres unmarked) [Compound 23, 2-(butylamino)-1-(3,5-dichloro-4-hydroxyphenyl)-1-ethanol], the Emax at 10 µM in assay [1] and in assay [2] was less than 25% throughout.
For the molecule `O[C@@H](c1cccc(F)c1)C12CCC(CCc3ccc(Cl)cc3)(CC1)N2` [Compound 527, (S)-{4-[2-(p-chlorophenyl)ethyl]-7-azabicyclo[2.2.1]hept-1-yl}(m-fluorophenyl)methanol], the Emax at 10 µM in assay [1] and in assay [2] was less than 25% throughout.
As to `CCCC(C)NCC(O)c1ccc(Cl)c(O)c1` (centres unmarked) [Compound 35, 1-(4-chloro-3-hydroxyphenyl)-2-(1-methylbutylamino)-1-ethanol], the Emax at 10 µM in assay [1] is greater than 75%; in assay [2], less than 25%.
Taken in the same sequence, the figures for `CS(=O)(=O)N(Cc1ccccc1)[C@H]1CC[C@H](C[C@@H]2CC[C@H]([C@@H](O)c3cccc(F)c3)N2)CC1` [Compound 503, (S)-[(2R,5S)-5-({(1r,4S)-4-[(benzyl)-N-mesylamino]cyclohexyl}methyl)-2-pyrrolidinyl](m-fluorophenyl)methanol] were less than 25% and less than 25%.

The record behind these values is patent US20260256751A1, “COMBINATION OF BETA-2-ADRENERGIC RECEPTOR AGONISTS AND GLP-1 RECEPTOR AGONISTS FOR USE IN TREATING HYPERGLYCAEMIA” (ATROGI AB, priority 2023, published 2026).
